Here are results for one compound from patent US12538922B2, “Composition and methods for parasite control” (priority 2019, dated 2026).

Counter-ions that a name gives are not always drawn. Like-named read-outs stand apart in the source and are kept apart here. Some results are limits rather than exact numbers.

Test [1] concerns adult Aedes aegypti mosquitoes. The test can be described thus: Mosquito repellency assay (landings and time on warm treated surface). The following applies: for Mean probing time [%, compared to control]: 100% = same time as on vehicle-treated surface; for Repellency, % reduction in landings vs vehicle control: repellency as percentage reduction of control, 100% = no landings. It is filed as in vivo. The procedure:
The compound of the invention is mixed with ethanol to make a composition that can be applied to a surface and allowed to dry. After the surface is treated with the compounds of the invention and dried, it is heated to human body temperature, and the number of landings and the total time spent by the mosquitoes on the warm surface by adult Aedes aegypti mosquitoes is recorded automatically by machine vision to measure repellency of each compound.
Repellency (based on the number of individual landings on the warm surface) is expressed as a percentage reduction of the control, where the average number of mosquitoes landing on a warm surface treated only with the vehicle solvent is counted. 100% means no mosquitoes landed on the warm surface.
For mosquitoes that still landed on the warm surface, the time spent on the warm surface is also recorded and expressed as a percentage of the control, corresponding to the average time that mosquitoes spent on the same warm surface when treated only with the vehicle solvent. 100% mean that the mosquitoes spent the same time on the treated warm surface as on a warm surface treated only with the vehicle solvent.
Each compound/dose is tested in triplicate using a surface of 18.9 cm2 and 100 microliters of solution without the compound (the placebo) or with the compound dilution spread on the surface, and allowed to dry before the test. The average and standard error on triplicates is calculated. The control (using only vehicle solvent) is run with ethanol. The same population of mosquitoes is exposed first to the warm surface treated with the vehicle solvent, then to the surface treated with the compound. The concentration of the solution comprising the test compound was adjusted to ensure the treatment dosage of the compound is according to the final concentration per surface units area in the table.

In test [2] the test system is R. sanguineus tick larvae. The following applies: for Repellence Median (Q1-Q3) [%] / Knockdown Median (Q1-Q3) [%]: pure compound; for Repellence Median (Q1-Q3) [%]: median of replicates; for Knockdown Median (Q1-Q3) [%]: motility reduction over 9 min. The method, then: FIG. 1 Schematic representation of the tick repellent test. 30-60 tick larvae are deposited in the non-treated area of a circular arena (8.96 cm^2) whereby one quadrant of the surface (2.25 cm^2) is treated. After 1 minute, the distribution of ticks in the treated and untreated areas is measured for a duration of 2 minutes. The repellent/deterrent effect is expressed in %: 100% means that ticks completely avoided the treated surface. Toxicity is measured in the same setup over a duration of 8 minutes and the mortality is expressed in % motility reduction between the beginning and the end of the 8 minutes. Dosages are expressed as a quantity (mg or molarity) per surface unit (m^2), as the compound or extract is deposited at the bottom of the well. Pure compounds: dose given in micromoles/m^2; Extracts: dose given in micrograms/m^2. Tests were run in triplicates.
The assay is used to evaluate the repellent/deterrent potential of a test compound or extract. The test includes a preliminary assessment of knockdown efficacy as a secondary endpoint. Knockdown can be defined as a state of intoxication and paralysis that usually precedes death (Wickham et al. (1974) Pesticide Science 5(5): 657-664). The test relies on the questing behavior of ticks that explore their habitat to find a suitable host hunting site and their propensity to avoid areas treated with repellent or irritating substances. Tick knockdown is expressed as a reduction in total motility over a defined period of time, and not by collecting and counting the number of dead and live ticks at the end of the exposure period.
Plant extracts or synthetic pure alkaloids diluted in methanol (extracts) or ethanol (alkaloids) were deposited on the bottom of wells in a six-well plate. Only one quadrant ([…]) of the bottom surface of each well was treated. The solvent was left to evaporate. The final concentration of the plant extracts was, therefore, expressed in mg/m^2, or in micromoles per square meter (μmol/m^2) for the synthetic alkaloids. Final concentrations applied for plant extracts were 893 (R. sanguineus adults only), 446, 141, 44.6, 14.1, and 4.46 mg/m^2, and 300, 100, 30, 10, and 3 μmol/m^2 for pure alkaloids. Approximately 50 R. sanguineus tick larvae, and exactly 5 R. sanguineus adults, or 5 I. ricinus nymphs were added to the untreated area of each well. Positive (DEET, commercial tick repellent) and negative (methanol or ethanol) controls were evaluated in parallel. Each concentration tested was run in three or more test replicates. After a 1-min incubation on a heating plate, the frequency of tick movement in the treated quadrant and in each of the untreated quadrants was recorded by machine vision. Tick movement on the untreated surface was computed as the median of movement on the three untreated quadrants. To estimate deterrence recordings were performed over a period of 2 min for R. sanguineus larvae, and for 3 minutes for R. sanguineus adults and I. ricinus nymphs, after the 1-min pre-exposure period. To assess knockdown effect, recording was extended to 9 min (starting at the 1-min pre-exposure period and lasting an additional 8 minutes).
Deterrence activity was calculated as follows: Percent deterrence=1−(movements on treated area/movements on untreated area)×100.
A difference of 50% between total movements recorded in the treated area versus movements recorded in the untreated area was considered significant.
The tick knockdown effect was calculated similarly: Percent knockdown=1−(movements at the end of the imaging period/movements at the beginning of the imaging period)×100.
A difference of 50% between total movements recorded during the 1 min pre-exposure and total movements measured at 9 min of recording was considered significant.

[3] abbreviates: dose 380 μmol/m^2, listed as S enantiomer HCl salt, dihydrochloride.

Turning to `C1=CC[C@@H](c2cccnc2)NC1` [(S)-anatabine dihydrochloride], the entries for the “Mean probing time [%, compared to control]” value in test [1] (setting [3]) and in test [1] (dose 760 μmol/m^2) were 71.5% and 62.7%, respectively. Moreover, the figures for the “Repellency, % reduction in landings vs vehicle control” value in test [1] (setting [3]) and in test [1] (dose 760 μmol/m^2) were 25.4% and 28.2%, respectively. For the same compound, in test [2] (Table 5, N = 3 subset of Table 4), the “MEC (μmol/m^2)” value amounted to 300 μmol/m^2. Also, the “% repellency” value amounted to 12% in test [2] (Table 5, N = 3 subset of Table 4, dose 30) and 78% in test [2] (Table 5, N = 3 subset of Table 4, dose 300). The “Repellence Median (Q1-Q3) [%]” value worked out at 38.4% in test [2] (concentration 3 μmol/m^2); 38.1% in test [2] (concentration 10 μmol/m^2, dihydrochloride); 38% in test [2] (concentration 10 μmol/m^2, listed as (S)-anatabine, dihydrochloride); 54.4% in test [2] (concentration 30 μmol/m^2, dihydrochloride); 54% in test [2] (concentration 30 μmol/m^2, listed as (S)-anatabine, dihydrochloride); 86.2% in test [2] (concentration 100 μmol/m^2, dihydrochloride). Also, the “Repellence Median (Q1-Q3) [%]” value in test [2] (concentration 100 μmol/m^2, listed as (S)-anatabine, dihydrochloride) was 86%; in test [2] (concentration 300 μmol/m^2), 79.8%. Besides, the “Knockdown Median (Q1-Q3) [%]” value in test [2] (concentration 3 μmol/m^2) was found to be 0%; in test [2] (concentration 10 μmol/m^2), 4.2%; in test [2] (concentration 30 μmol/m^2) it was 14.7%; in test [2] (concentration 100 μmol/m^2), 23.8%; in test [2] (concentration 300 μmol/m^2) it was 14.2%. Moreover, in test [2] (smallest concentration with median activity above 50% significance limit), the “Knockdown Minimum effective concentration” value is greater than 300 μmol/m^2. Further, in test [2] (smallest concentration with median activity above 50% significance limit, dihydrochloride), the “Repellence Minimum effective concentration” value was determined as 30 μmol/m^2.
